Laboratory results from patent US7253198B2, “Hydroxyethylamine derivatives for the treatment of Alzheimer's disease” (Glaxo Group Limited, priority 2002, dated 2007).
Read-outs that look alike come from different tables or passages of the source.

Molecular target: Asp-2 (Homo sapiens, UniProt P56817)
Assay: Asp-2 Inhibitory Assay
Format: biochemical
Settings: Assay (I), FAM-SEVNLDAEFK-TAMRA substrate, pH 4.5
Procedure: (I) Asp-2 Inhibitory Assay
This is prepared by diluting 2 ml of a 2 mM DMSO solution of the substrate into 400 ml of buffer (100 mM Sodium acetate pH=4.5, 1 l Milli-Q water, 0.06% Triton X-100 (0.5 ml/l), pH adjusted to 4.5 using glacial acetic acid). […] This is prepared by diluting 16 ml of a 500 nM enzyme solution into 384 ml of buffer (prepared as above).
Blank wells (enzyme solution replaced by buffer) are included as controls on each plate.

Sequence of Asp-2 (P56817 46-501): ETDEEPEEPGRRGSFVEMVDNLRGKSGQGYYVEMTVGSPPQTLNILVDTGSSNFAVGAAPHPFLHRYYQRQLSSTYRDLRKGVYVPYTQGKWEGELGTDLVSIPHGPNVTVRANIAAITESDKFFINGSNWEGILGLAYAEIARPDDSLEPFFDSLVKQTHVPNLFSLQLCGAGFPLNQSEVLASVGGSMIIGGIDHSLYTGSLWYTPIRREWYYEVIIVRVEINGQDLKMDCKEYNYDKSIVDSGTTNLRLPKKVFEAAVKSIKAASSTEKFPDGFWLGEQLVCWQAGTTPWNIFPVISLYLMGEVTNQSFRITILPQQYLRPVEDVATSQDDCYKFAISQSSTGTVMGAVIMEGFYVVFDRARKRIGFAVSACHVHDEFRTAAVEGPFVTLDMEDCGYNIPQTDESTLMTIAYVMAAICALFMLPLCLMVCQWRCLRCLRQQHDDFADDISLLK

Compound | IC50 (read-out: inhibition (Asp-2)) [µM] | IC50 (inhibition (Asp-2)) [µM]
C[C@H](NC[C@@H](O)[C@H](Cc1ccccc1)NC(=O)c1cc(C2CCCC2)cc(N2CCCC2=O)c1)C(=O)NC1CCCCC1 [Example E12, N-[(1S,2R)-1-Benzyl-3-((S)-1-cyclohexylcarbamoylethylamino)-2-hydroxypropyl]-3-cyclopentyl-5-(2-oxopyrrolidin-1-yl)benzamide] | 0.001 to 0.05 | –
O=C(NC(Cc1ccccc1)C(O)CNCc1cccc(C(F)(F)F)c1)c1cc(C2CCCC2)cc(N2CCCC2=O)c1 (centres unmarked) [Example E22, N-[1-Benzyl-2-hydroxy-3-(3-trifluoromethylbenzylamino)propyl]-3-cyclopentyl-5-(2-oxopyrrolidin-1-yl)benzamide] | 0.001 to 0.05 | –
CCCCCNc1cc(C(=O)N[C@@H](Cc2ccccc2)[C@H](O)CN[C@@H](C)C(=O)NC2CCCCC2)cc(N2CCCC2=O)c1 [Example E54, N-[(1S,2R)-1-Benzyl-3-((S)-1-cyclohexylcarbamoylethylamino)-2-hydroxypropyl]-3-(2-oxopyrrolidin-1-yl)-5-pentylaminobenzamide] | 0.001 to 0.05 | –
CCC(CC)Nc1cc(C(=O)N[C@@H](Cc2ccccc2)[C@H](O)CN[C@@H](C)C(=O)NC2CCCCC2)cc(N2CCCC2=O)c1 [Example E55, N-[(1S,2R)-1-Benzyl-3-((S)-1-cyclohexylcarbamoylethylamino)-2-hydroxypropyl]-3-(1-ethylpropylamino)-5-(2-oxopyrrolidin-1-yl)benzamide] | 0.001 to 0.05 | –
CCCCNc1cc(C(=O)N[C@@H](Cc2ccccc2)[C@H](O)CN[C@@H](C)C(=O)NC2CCCCC2)cc(N2CCCC2=O)c1 [Example E56, N-[(1S,2R)-1-Benzyl-3-((S)-1-cyclohexylcarbamoylethylamino)-2-hydroxypropyl]-3-butylamino-5-(2-oxopyrrolidin-1-yl)benzamide] | 0.001 to 0.05 | –
CC(C)CCCC(C)NC[C@@H](O)[C@H](Cc1ccccc1)NC(=O)c1cc(NC(C)C)cc(N2CCCC2=O)c1 (stereo partly drawn) [Example E60, N-[(1S,2R)-1-Benzyl-3-(1,5-dimethylhexylamino)-2-hydroxypropyl]-3-isopropylamino-5-(2-oxopyrrolidin-1-yl)benzamide] | 0.001 to 0.05 | –
CCNc1cc(C(=O)N[C@@H](Cc2ccccc2)[C@H](O)CNCc2cccc(OC(F)(F)F)c2)cc(N2CCCC2=O)c1 [Example E86, N-[(1S,2R)-1-Benzyl-2-hydroxy-3-(3-trifluoromethoxybenzylamino)-propyl]-3-ethylamino-5-(2-oxopyrrolidin-1-yl)benzamide] | – | 0.001 to 0.05
CCCC[C@H](NC[C@@H](O)[C@H](Cc1ccccc1)NC(=O)c1cc(OC(C)C)cc(N2CCCC2=O)c1)C(=O)NCC(C)C [Example E179, N-[(1S,2R)-1-Benzyl-2-hydroxy-3-((S)-1-isobutylcarbamoyl-pentylamino)-propyl]-3-isopropoxy-5-(2-oxopyrrolidin-1-yl)benzamide] | 0.001 to 0.05 | –
